# Measured values from PubChem BioAssay (NCI).
#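 GI50: concentration for 50% inhibition of growth. TGI is the concentration that stops growth completely.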
# How the values were obtained:
# Experiment in all cases: growth of human tumour cells (NCI), 384-well format
# DU-145 prostate = system: DU-145 prostate
# HCT-15 colon = system: HCT-15 colon
# MALME-3M melanoma = system: MALME-3M melanoma
# OVCAR-3 ovarian = system: OVCAR-3 ovarian
# M14 melanoma = system: M14 melanoma
# SK-MEL-5 melanoma = system: SK-MEL-5 melanoma
# TK-10 renal = system: TK-10 renal
# CCRF-CEM leukemia = system: CCRF-CEM leukemia
# CAKI-1 renal = system: CAKI-1 renal
# SNB-19 CNS = system: SNB-19 CNS
# MDA-MB-231 breast = system: MDA-MB-231 breast
# 786-0 renal = system: 786-0 renal
# RPMI-8226 leukemia = system: RPMI-8226 leukemia
# PC-3 prostate = system: PC-3 prostate
# SF-268 CNS = system: SF-268 CNS
# SK-MEL-2 melanoma = system: SK-MEL-2 melanoma
# HS 578T breast = system: HS 578T breast
# EKVX NSCLC = system: EKVX NSCLC
# NCI-H522 lung = system: NCI-H522 lung
# SK-OV-3 ovarian = system: SK-OV-3 ovarian
# SNB-75 CNS = system: SNB-75 CNS
# MDA-MB-435 melanoma = system: MDA-MB-435 melanoma
# ACHN renal = system: ACHN renal
# HCC-2998 colon = system: HCC-2998 colon
# MCF7 breast = system: MCF7 breast
# UO-31 renal = system: UO-31 renal
# NCI-H23 lung = system: NCI-H23 lung
# SR leukemia = system: SR leukemia
# A498 renal = system: A498 renal
# MOLT-4 leukemia = system: MOLT-4 leukemia
# COLO 205 colon = system: COLO 205 colon
# SF-295 CNS = system: SF-295 CNS
# BT-549 breast = system: BT-549 breast
# NCI-H226 lung = system: NCI-H226 lung
# LOX IMVI melanoma = system: LOX IMVI melanoma
# UACC-62 melanoma = system: UACC-62 melanoma
# MDA-MB-468 breast = system: MDA-MB-468 breast
# A549 NSCLC = system: A549 NSCLC
# SK-MEL-28 melanoma = system: SK-MEL-28 melanoma
# NCI-H460 NSCLC = system: NCI-H460 NSCLC
# HT29 colon = system: HT29 colon
# KM12 colon = system: KM12 colon
# HL-60(TB) leukemia = system: HL-60(TB) leukemia
# T-47D breast = system: T-47D breast
# HOP-92 NSCLC = system: HOP-92 NSCLC
# NCI-H322M lung = system: NCI-H322M lung
# K-562 leukemia = system: K-562 leukemia
smiles,measurement,setting,value
CCc1c(C#N)c(SC(C(N)=O)c2ccccc2)nc(N2CCC(N)CC2)c1C#N (centres undefined),GI50,DU-145 prostate,3.33 µM
same,TGI,DU-145 prostate,12.4 µM
same,GI50,HCT-15 colon,17.3 µM
same,TGI,HCT-15 colon,31.3 µM
same,GI50,MALME-3M melanoma,4.17 µM
same,TGI,MALME-3M melanoma,16.9 µM
same,GI50,OVCAR-3 ovarian,0.44 µM
same,TGI,OVCAR-3 ovarian,6.5 µM
same,GI50,M14 melanoma,10.4 µM
same,TGI,M14 melanoma,22.2 µM
same,GI50,SK-MEL-5 melanoma,11 µM
same,TGI,SK-MEL-5 melanoma,23 µM
same,GI50,TK-10 renal,17.5 µM
same,TGI,TK-10 renal,31.4 µM
same,GI50,CCRF-CEM leukemia,6.52 µM
same,TGI,CCRF-CEM leukemia,19 µM
same,GI50,CAKI-1 renal,13 µM
same,TGI,CAKI-1 renal,25.8 µM
same,GI50,SNB-19 CNS,13.9 µM
same,TGI,SNB-19 CNS,27 µM
same,GI50,MDA-MB-231 breast,16.2 µM
same,TGI,MDA-MB-231 breast,29.8 µM
same,GI50,786-0 renal,11.7 µM
same,TGI,786-0 renal,24 µM
same,GI50,RPMI-8226 leukemia,0.201 µM
same,TGI,RPMI-8226 leukemia,1.38 µM
same,GI50,PC-3 prostate,11.2 µM
same,TGI,PC-3 prostate,23.4 µM
same,GI50,SF-268 CNS,13.5 µM
same,TGI,SF-268 CNS,26.4 µM
same,GI50,SK-MEL-2 melanoma,12 µM
same,TGI,SK-MEL-2 melanoma,24.4 µM
same,GI50,HS 578T breast,14.4 µM
same,TGI,HS 578T breast,27.6 µM
same,GI50,EKVX NSCLC,15.4 µM
same,TGI,EKVX NSCLC,28.8 µM
same,GI50,NCI-H522 lung,8.33 µM
same,TGI,NCI-H522 lung,20.9 µM
same,GI50,SK-OV-3 ovarian,17.9 µM
same,TGI,SK-OV-3 ovarian,31.9 µM
same,GI50,SNB-75 CNS,14.9 µM
same,TGI,SNB-75 CNS,28.2 µM
same,GI50,MDA-MB-435 melanoma,16.8 µM
same,TGI,MDA-MB-435 melanoma,30.5 µM
same,GI50,ACHN renal,14.9 µM
same,TGI,ACHN renal,28.2 µM
same,GI50,HCC-2998 colon,8.72 µM
same,TGI,HCC-2998 colon,20.9 µM
same,GI50,MCF7 breast,5.36 µM
same,TGI,MCF7 breast,17.7 µM
same,GI50,UO-31 renal,18.1 µM
same,TGI,UO-31 renal,33 µM
same,GI50,NCI-H23 lung,11.5 µM
same,TGI,NCI-H23 lung,23.7 µM
same,GI50,SR leukemia,3.45 µM
same,TGI,SR leukemia,11.8 µM
same,GI50,A498 renal,12.9 µM
same,TGI,A498 renal,25.6 µM
same,GI50,MOLT-4 leukemia,4.95 µM
same,TGI,MOLT-4 leukemia,15.4 µM
same,GI50,COLO 205 colon,3.42 µM
same,TGI,COLO 205 colon,17.4 µM
same,GI50,SF-295 CNS,13.2 µM
same,TGI,SF-295 CNS,26 µM
same,GI50,BT-549 breast,10.3 µM
same,TGI,BT-549 breast,22.1 µM
same,GI50,NCI-H226 lung,12.4 µM
same,TGI,NCI-H226 lung,25 µM
same,GI50,LOX IMVI melanoma,11.4 µM
same,TGI,LOX IMVI melanoma,23.7 µM
same,GI50,UACC-62 melanoma,6.36 µM
same,TGI,UACC-62 melanoma,19.7 µM
same,GI50,MDA-MB-468 breast,8.13 µM
same,TGI,MDA-MB-468 breast,20.4 µM
same,GI50,A549 NSCLC,14.4 µM
same,TGI,A549 NSCLC,27.7 µM
same,GI50,SK-MEL-28 melanoma,7.46 µM
same,TGI,SK-MEL-28 melanoma,20.1 µM
same,GI50,NCI-H460 NSCLC,11.2 µM
same,TGI,NCI-H460 NSCLC,23.5 µM
same,GI50,HT29 colon,16.9 µM
same,TGI,HT29 colon,30.7 µM
same,GI50,KM12 colon,11.2 µM
same,TGI,KM12 colon,23.4 µM
same,GI50,HL-60(TB) leukemia,2.29 µM
same,TGI,HL-60(TB) leukemia,9.95 µM
same,GI50,T-47D breast,14.8 µM
same,TGI,T-47D breast,28 µM
same,GI50,HOP-92 NSCLC,13 µM
same,TGI,HOP-92 NSCLC,25.7 µM
same,GI50,NCI-H322M lung,15.9 µM
same,TGI,NCI-H322M lung,29.4 µM
same,GI50,K-562 leukemia,5.63 µM
same,TGI,K-562 leukemia,18.3 µM
